Reference: ChEMBL document CHEMBL5576071, “Structure optimization of Cmpd-15 as negative allosteric modulators for the β2-adrenergic receptor” (Bioorg Med Chem, 2024)

Assays:
[1] = biological target: Beta-2 adrenergic receptor (Homo sapiens) (UniProt P07550); assay: Negative allosteric modulation of beta-2 adrenergic receptor (unknown origin) transfected in HEK293 cells assessed as decrease in cAMP accumulation at 50 uM preincubated for 20 mins followed by ISO treatment for 5 mins for by Glo sensor assay relative to 4-((2S)-3-(((S)-3-(3-bromophenyl)-1-(methylamino)-1-oxopropan-2-yl)amino)-2-(2-cyclohexyl-2-phenylacetamido)-3-oxopropyl)benzamide; format: functional, cell-based; conditions: filed as negative allosteric modulator, time 25.0 min
[2] = biological target: Beta-2 adrenergic receptor (Homo sapiens) (UniProt P07550); assay: Potency index, ratio of 4-((2S)-3-(((S)-3-(3-bromophenyl)-1-(methylamino)-1-oxopropan-2-yl)amino)-2-(2-cyclohexyl-2-phenylacetamido)-3-oxopropyl)benzamide Imax to test compound Imax for negative allosteric modulation of beta-2 adrenergic receptor (unknown origin) transfected in HEK293 cells assessed as decrease in cAMP accumulation at 50 uM preincubated for 20 mins followed by ISO treatment for 5 mins for by Glo sensor assay; format: functional, cell-based; conditions: filed as negative allosteric modulator, time 25.0 min
[3] = Metabolic stability in mouse liver microsomes assessed as half life at 1 uM preincubated for 5 mins followed by NADPH addition measured for 5 to 60 mins by LC-MS/MS analysis; format: ADME, Microsome; conditions: time 10-65 min
[4] = Metabolic stability in human liver microsomes assessed as half life at 1 uM preincubated for 5 mins followed by NADPH addition measured for 5 to 60 mins by LC-MS/MS analysis; format: ADME, Microsome; conditions: time 10-65 min
[5] = Metabolic stability in mouse liver microsomes assessed as hepatic extraction ratio at 1 uM preincubated for 5 mins followed by NADPH addition measured for 5 to 60 mins by LC-MS/MS analysis; format: ADME, Microsome; conditions: time 10-65 min, read-out: ERH
[6] = Metabolic stability in human liver microsomes assessed as hepatic extraction ratio at 1 uM preincubated for 5 mins followed by NADPH addition measured for 5 to 60 mins by LC-MS/MS analysis; format: ADME, Microsome; conditions: time 10-65 min, read-out: ERH

Beta-2 adrenergic receptor (Homo sapiens), sequence (P07550 whole entry, looked up): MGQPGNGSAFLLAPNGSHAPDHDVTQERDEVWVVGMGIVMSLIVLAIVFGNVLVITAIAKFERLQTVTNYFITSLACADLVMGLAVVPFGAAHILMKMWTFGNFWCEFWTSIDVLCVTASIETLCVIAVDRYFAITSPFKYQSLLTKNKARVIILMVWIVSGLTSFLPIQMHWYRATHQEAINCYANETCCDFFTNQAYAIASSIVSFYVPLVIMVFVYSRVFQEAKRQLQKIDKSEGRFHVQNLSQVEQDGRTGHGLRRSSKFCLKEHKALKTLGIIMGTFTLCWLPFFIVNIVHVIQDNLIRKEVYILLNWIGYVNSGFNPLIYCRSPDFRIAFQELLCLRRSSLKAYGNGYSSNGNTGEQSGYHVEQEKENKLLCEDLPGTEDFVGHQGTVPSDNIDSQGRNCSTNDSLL

Imax [1]	Ratio [2]	half-life at 1 µM [3]	half-life at 1 µM [4]	hepatic extraction ratio at 1 µM [5]	hepatic extraction ratio at 1 µM [6]	SMILES
114%	1.14	–	–	–	–	CNC(=O)[C@H](Cc1cccc(Br)c1)NC(=O)c1cc(-c2ccccc2)nn1Cc1cccc(Cl)c1
130%	1.3	–	–	–	–	CNC(=O)[C@H](Cc1cccc(Br)c1)NC(=O)c1cc(-c2ccc(F)cc2)nn1Cc1cccc(Br)c1
114%	1.14	–	–	–	–	CNC(=O)[C@H](Cc1cccc(Br)c1)NC(=O)c1cc(-c2ccccc2)nn1Cc1ccccc1Cl
114%	1.14	–	–	–	–	CNC(=O)[C@H](Cc1cccc(Br)c1)NC(=O)c1cc(-c2ccccc2)nn1Cc1ccc(Cl)cc1
114%	1.14	–	–	–	–	CNC(=O)[C@H](Cc1cccc(Br)c1)NC(=O)c1cc(-c2ccccc2)nn1Cc1ccc(F)cc1
143%	1.43	58.7 min	41.5 min	0.721	0.835	CNC(=O)[C@H](Cc1cccc(Br)c1)NC(=O)c1cc(-c2ccccc2)nn1Cc1ccccc1F
67%	0.67	–	–	–	–	CNC(=O)[C@H](Cc1cccc(Br)c1)NC(=O)c1cc(-c2ccccc2)nn1Cc1ccccc1C#N
120%	1.2	–	–	–	–	CNC(=O)[C@H](Cc1cccc(Br)c1)NC(=O)c1cc(-c2ccccc2[N+](=O)[O-])nn1Cc1cccc(Br)c1
100%	1	–	–	–	–	CNC(=O)[C@H](Cc1cccc(Br)c1)NC(=O)c1cc(-c2ccccc2)nn1Cc1ccc(C#N)cc1
91%	0.91	–	–	–	–	CNC(=O)[C@H](Cc1cccc(Br)c1)NC(=O)c1cc(-c2ccccc2Br)nn1Cc1cccc(Br)c1
118%	1.18	–	–	–	–	CNC(=O)[C@H](Cc1cccc(Br)c1)NC(=O)c1cc(-c2ccccc2Cl)nn1Cc1cccc(Br)c1
–	–	2.19 min	1.53 min	0.986	0.993	CNC(=O)[C@H](Cc1cccc(Br)c1)NC(=O)[C@H](Cc1ccc(C(N)=O)cc1)NC(=O)C(c1ccccc1)C1CCCCC1 (stereo not given in full)
109%	1.09	–	–	–	–	CNC(=O)[C@H](Cc1cccc(Br)c1)NC(=O)c1cc(-c2ccc(Br)cc2)nn1Cc1cccc(Br)c1
127%	1.27	–	–	–	–	CNC(=O)[C@H](Cc1cccc(Br)c1)NC(=O)c1cc(-c2cccc(Cl)c2)nn1Cc1cccc(Br)c1
125%	1.25	–	–	–	–	CNC(=O)[C@H](Cc1cccc(Br)c1)NC(=O)c1cc(-c2ccccc2)nn1Cc1cccc(I)c1
100%	1	–	–	–	–	CNC(=O)[C@H](Cc1cccc(Br)c1)NC(=O)c1cc(-c2cccc(Br)c2)nn1Cc1cccc(Br)c1
133%	1.33	–	–	–	–	CNC(=O)[C@H](Cc1cccc(Br)c1)NC(=O)c1cc(-c2ccccc2)nn1Cc1cccc(F)c1
